Laboratory results taken from patent US20130053435A1, “Methods of Treating Alcohol Intoxication, Alcohol Use Disorders and Alcohol Abuse Which Comprises the Administration of Dihydromyricetin” (priority 2011, published 2013).
Like-named read-outs stand apart in the source and are kept apart here.

Tests used:
[1] = tested on: benzodiazepine site of GABAARs; assay: [3H]flunitrazepam binding in rat cortical membrane homogenates; conditions: comparative experiments
Protocol: Standard procedures for preparation of rat cortical membranes for radioligand binding assays were conducted as previously described with modifications in speed and number of centrifugation and washes, and buffer compositions. […] Naïve rat cortex was dissected from brain and homogenized in 0.32 M sucrose, 10 mM HEPES buffer (pH 7.4), and centrifuged at 650×g, 4° C. The subsequent supernatant was centrifuged at 150,000×g to collect the desired membrane-containing pellet. The pellet was washed and centrifuged two more times, first using ice-cold water and second using membrane buffer containing 50 mM KH2PO4, 1 mM EDTA, 2 mM benzamidine HCl, 0.5 mM DTT, 0.1 mM benzethonium HCl, 0.01% bacitracin, 0.2 PMSF (pH 7.4), and the resulting pellet was frozen. On the day of binding assay, the pellet was homogenized in assay buffer containing 50 mM KH2PO4, 1 mM EDTA, 200 mM KCl (pH 7.4) and centrifuged, and resuspended in fresh assay buffer to a final protein concentration of 1 mg/ml. […] Specific binding was defined as the total amount bound (zero unlabeled ligand) minus the binding in the presence of 10 μM final concentration flurazepam (Sigma). Data was analyzed with GraphPad Prism 4.0 Software (San Diego, Calif.) to determine IC50 (One-site competition equation) and Hill slope (Sigmoidal Dose-Response equation). Experiments were conducted in triplicate.

GABAARs [2] = tested on: T1, GABAARs; assay: Whole-cell patch-clamp, DGCs in hippocampal slices, acute drug application; format: cell-based, rat; conditions: comparative experiments, rat hippocampal slices
T1 construct: DHM-enhanced mIPSCs; other: control (vehicle) cultured neurons, DIV14; other: cultured neurons with EtOH exposure/withdrawal (60 mM, 30 min, 24 hr); EtOH-potentiated mIPSCs; effect on post-synaptic currents (mIPSCs); other: comparative experiments, rat hippocampal slices
Protocol: (§1) Transverse slices (400 μm) of dorsal hippocampus were obtained with a Vibratome (VT 100, Technical Products International, St. Louis, Mo.) and standard techniques known in the art. Slices were continuously perfused with artificial cerebrospinal fluid (ACSF).
(§2) Signals were recorded in voltage-clamp mode with a […] amplifier (Molecular Devices, Sunnyvale, Calif.). Whole cell access resistances were in the range of <25 MΩ before electrical compensation by about 70%. During voltage-clamp recordings, access resistance was monitored by measuring the size of the capacitative transient in response to a 5 mV step command and the data were abandoned if changes >20% were encountered. At least 10 min was allowed for equilibration of the pipette solution with the intracellular milieu before commencing mIPSC recordings.
(§3) Data were analyzed using the Clampfit (Version 9.0, Molecular Devices) and the MiniAnalysis Program (versions 6.0.7, Synaptosoft, Decatur, Ga.).
(§4) The MiniAnalysis program (Synaptosoft, Decatur, Ga.) was used to analyze mIPSCs. Itonic is the averaged baseline currents of a given recording period. Itonic amplitude was calculated as the difference between the holding currents measured before and after picrotoxin (100 μM) or bicuculline (10 μM). […] Briefly, the recordings were low-pass filtered off-line (Clampfit software) at 2 kHz. The mIPSCs were detected (Mini Analysis Program, version 6.0.7) with threshold criteria of 8 pA amplitude and 20 pA*ms charge transfer. The frequency of mIPSCs was determined from all automatically detected events in a given 100 s recording period. For kinetic analysis, only single event mIPSCs with a stable baseline, sharp rising phase (10 to 90% rise time), and exponential decay were chosen during visual inspection of the recording trace. Double and multiple peak mIPSCs were excluded. At least 100 individual mIPSC events were recorded under each experimental condition. The mIPSC kinetics was obtained from analysis of the averaged chosen single events aligned with half rise time in each cell. Decay time constants were obtained by fitting a double exponential to the falling phase of the averaged mIPSCs. Itonic magnitudes were obtained from the averaged baseline current of a given recording period. Itonic amplitude was calculated as the difference between the holding currents measured before and after the application of picrotoxin (50 μM) or bicuculline (10 μM). […] The investigator performing the recordings and mIPSC analysis was blind to the treatment (vehicle, EtOH, E+D, or D) that the rats received.
(§5) As performed previously, whole-cell patch-clamp recordings in dentate gyms granule cells (DGCs) from hippocampal slices in vitro were conducted.

GABAARs [3] = tested on: T2, GABAARs; assay: as above; format: cell-based, rat; conditions: in the presence of 60 mM EtOH, rat hippocampal slices
T2 construct: other: in the presence of 60 mM EtOH, rat hippocampal; shift of the GABA concentration-response curve
Protocol: as §1, §2, §3, §4, §5

GABAARs [4] = tested on: T3, GABAARs; assay: as above; format: cell-based, rat; conditions: comparative experiments, rat hippocampal slices
T3 construct: DHM-enhanced Itonic; EC50 on GABAAR-mediated Itonic; other: control (vehicle) cultured neurons, DIV14; other: cultured neurons with EtOH exposure/withdrawal (60 mM, 30 min, 24 hr); EtOH-potentiated Itonic; GABAAR-mediated Ito
Protocol: as §1, §2, §3, §4, §5

[5] = tested on: EtOH-induced LORR in rats
Protocol: See Kakihana R, et al. (1966) Science 154(756):1574-1575). Briefly, after drug injection, rats were placed in the supine position in a V-shaped support. LORR onset time was taken from the endpoint of drug injection (i.p.). LORR duration ended when the animal was able to flip over three times in 30 s. LORR assays were blindly performed. LORR durations were reported as mean (min)±SEM.
Further LORR assays were conducted as follows.
Additional pre-treatment and post-treatment experiments were also conducted.
See Hunkeler, W., et al. (1981) Nature 290:514-516.

GABAARs [6] = tested on: T1, GABAARs; assay: Whole-cell patch-clamp, cultured hippocampal neurons, acute drug application; format: cell-based, rat; conditions: DHM 1 μM + 10 μM flumazenil
Protocol: (§6) Hippocampal neurons from embryonic day 18 rats were prepared by papain dissociation (Worthington Biochemical, Lakewood, N.J.) and cultured in neurobasal medium and B27 supplement (Invitrogen). Cultures were kept at 37° C. in a 5% CO2 humidified incubator as described previously. See Shen, Y., et al. (2011) Mol Pharmacol 79:432-442.
(§7) Hippocampal neurons from embryonic day 18 SD rats were prepared by papain dissociation (Worthington Biochemical, Lakewood, N.J.) and cultured in neurobasal medium (Invitrogen) and B27 supplement as previously reported. See Stowell J N and Craig A M (1999) Neuron 22(3):525-536. Briefly, embryos were removed from maternal rats anesthetized with isoflurane and euthanized by decapitation. Hippocampus were dissected and placed in Ca^2+- and Mg^2+-free HEPES-buffered Hank's buffered salt solution (pH 7.45). Tissues were dissociated by papain digestion followed by trituration through a Pasteur pipette and papain inhibitor treatment. Cells were pelleted and resuspended in neurobasal medium containing 2% B27 serum-free supplement, 100 U/ml penicillin, 100 μg/ml streptomycin, 0.5 mM glutamine (all from Invitrogen), and 10 μM glutamate (Sigma).
(§8) Dissociated neurons were then plated at a density of 0.3×10^5 cells/cm^2 onto 12 mm round coverslips in 24-well plates (for patch-clamp recording) and/or at a density of 0.5×10^5 cells/cm^2 in 6-well plates (for Western blot and biotinylation assays) coated with poly-D-lysine (Sigma, 50 μg/ml). Cultures were kept at 37° C. in a 5% CO2 humidified incubator. Thereafter, one third to half of the medium was replaced twice a week with neurobasal culture medium containing 2% B27 supplement, and 0.5 mM glutamine.
(§9) Control neurons were treated with corresponding vehicle as same procedure as EtOH-treated neurons. The concentration of 60 mM EtOH was selected in view of prior experiments. See Liang J et al (2007). Specifically, the concentration of 60 mM EtOH used to treat cultured neurons was chosen to match blood levels measured in adult rats after intoxication with gavage of 5 g/kg, which produced about 60 mM blood peak plasma [EtOH] lasting for about 2 to 3 hr and induced significant plasticity in GABAARs and tolerance.
(§10) Then, immediately before electrophysiological recording, cells grown on coverslips were transferred to a perfusion chamber (Warner Instruments) and visualized with an inverted microscope (TE200, Nikon). Whole-cell patch-clamp recordings were obtained from cultured neurons under voltage-clamp mode at room temperature (22-25° C.), at a holding potential of −70 mV. Cells were perfused with an extracellular solution (137 mM NaCl, 5 mM KCl, 2 mM CaCl2, 1 mM MgCl2, 20 mM glucose and 10 mM HEPES (310-320 Osm, pH adjusted to 7.40 with NaOH)). Glass pipettes were filled with the same internal solution as that in slice recordings, with an input resistance of 4-7 MΩ. GABAAR-mediated mIPSCs were recorded using the same pharmacological method as mentioned above. […] Electrical signals were amplified using a Multiclamp 200 B amplifier (Molecular Devices, USA). After establishing the whole-cell configuration, at least 10 min were allowed to elapse before the application of drug to allow the membrane patch to stabilize and exchange of ions between the recording electrode and the cytosol to occur. Data were acquired with pClamp software (Version 10.0, Molecular Devices, USA), digitized at 20 kHz (Digidata 1440A, Molecular Devices), and analyzed using the Clampfit software (Version 10.0, Molecular Devices) and the Mini Analysis Program (versions 6.0.7, Synaptosoft, Decatur, Ga.) using methods known in the art. See Hamann M, et al. (2002) Neuron 33(4):625-633; Stell B M and Mody I (2002) J Neurosci 22(10): RC223; and Liang (2007).

GABAARs [7] = tested on: T3, GABAARs; assay: as above; format: cell-based, rat; conditions: DHM 1 μM + 10 μM flumazenil
Protocol: as §6, §7, §8, §9, §10

Compound	binding to GABAARs in [3H]flunitrazepam binding assay [1]	effect on post-synaptic currents (mIPSCs) (GABAARs [2])	block of EtOH potentiation of GABAAR-mediated Itonic and mIPSCs (GABAARs [3])	effect on extrasynaptic GABAAR-mediated tonic current (Itonic) (GABAARs [4])	LORR duration ([5]; flumazenil 10 mg/kg + DHM 3 mg/kg + EtOH) [min]	LORR duration ([5]; flumazenil 10 mg/kg + DHM 10 mg/kg + EtOH) [min]	LORR duration ([5]; flumazenil 10 mg/kg co-injected with EtOH, no DHM) [min]	LORR duration ([5]; flumazenil 30 mg/kg + DHM 3 mg/kg + EtOH) [min]	DHM-enhanced mIPSCs (GABAARs [6]) [%]	DHM-enhanced Itonic (GABAARs [7]) [%]
O=c1c(-c2ccc(O)cc2)coc2cc(O[C@@H]3O[C@H](CO)[C@@H](O)[C@H](O)[C@H]3O)ccc12 [daidzin, reference compound]	bind GABAARs	significantly potentiated	do not	no effect	–	–	–	–	–	–
CCOC(=O)c1ncn2c1CN(C)C(=O)c1cc(F)ccc1-2 [flumazenil, reference compound]	–	–	–	–	56.1 ± 4.6	29.3 ± 4.8	71.1 ± 4.8	58.2 ± 3.9	125.7±3.9	143.0±3.2
O=c1c(O)c(-c2ccc(O)c(O)c2)oc2cc(O)cc(O)c12 [quercetin, reference compound]	do not bind	no effect	do not	no effect	–	–	–	–	–	–
